# Measurements reported in paper PMC7558522, “Click-Free Synthesis of a Multivalent Tricyclic Peptide as a Molecular Transporter” (Pharmaceutics, 2020).
# Like-named read-outs stand apart in the source and are kept apart here. *1 amine or outer side, *2 acyl side, *3 side chain or, on linkers, in order; H or OH if unused. Where a SMILES comes first, the peptide text is derived from it. Bridges are numbered along the chain shown (N, C = ends). Roman numbers before positions name the chains, in order. Suc = O=C(CCC(=O)[*:2])[*:1]
# Experiments:
# MRSA (LAC Clone) = assay: microbe, parasite or virus in culture; type: cell-based, Methicillin-resistant Staphylococcus aureus
# Protocol: (§1) The selected strains of bacteria, MRSA (Los Angeles County (LAC) clone), E. coli (ATCC 25922), Pseudomonas aeruginosa (ATCC 27883), and Klebsiella pneumoniae (ATCC BAA 1705) were cultured according to the guidelines of the Clinical Laboratory Standards Institute (CLSI) guidelines. MIC values were determined using microbroth dilution assay. Tricyclic peptide 20 was used to evaluate antibacterial activity in comparison to positive controls, such as Meropenem for Gram-negative bacteria and c[R4W4] for Gram-positive bacteria. Bacterial strains were inoculated into LB (5 mL) and shaken in an orbital shaker at 175 rpm overnight at 37 °C. The cultured suspension was immediately diluted to get turbidity of 0.5 McFarland (1.5 × 10^8 bacterial cell CFU/mL) using normal saline. The test compounds (tricyclic peptide 20, Meropenem, and c[R4W4]) were dissolved in 5% dimethyl sulfoxide (DMSO) to generate 256 µg/mL solutions. 200 µL of tricyclic peptide 20, and controls were added to the first column of the 96 well plates, and a twofold serial dilution was performed with the addition of 100 µL of bacterial culture media to the other wells. […] Bacterial solution (100 µL) was added to all the wells and incubated statically at 37 °C overnight. The minimum concentration at which bacterial growth was not visible to eyes were reported as MICs and experiments were performed in triplicate.
# E. coli (ATCC 25922) = assay: microbe, parasite or virus in culture; type: cell-based, Escherichia coli
# Protocol: as §1
# [1] = tested on: Klebsiella pneumoniae (ATCC BAA 1705); assay: microbe, parasite or virus in culture; type: cell-based
# Protocol: as §1
# [2] = tested on: Pseudomonas aeruginosa (ATCC 27883); assay: microbe, parasite or virus in culture; type: cell-based
# Protocol: as §1
# [3] = tested on: MRSA, Klebsiella pneumoniae, Pseudomonas aeruginosa, and E. coli; type: cell-based; settings: range over the four strains, microbroth dilution
# Protocol: as §1
# MDA-MB-231 cells = type: cell-based, Human
# Protocol: Human breast cancer (MDA-MB-231) cell line was grown on 75 cm^2 cell culture flasks with Dulbecco’s modified eagle’s medium (DMEM) medium, supplemented with 10% fetal bovine serum (FBS), and 1% penicillin-streptomycin solution (10,000 units of penicillin and 10 mg of streptomycin in 0.9% NaCl) in a humidified atmosphere of 5% CO2, 95% air at 37 °C. CellTiter 96® Aqueous (Promega, Madison, WI, USA) one solution cell proliferation assay (MTS) was utilized to evaluate MDA-MB-231 cell viability. Cells were seeded into 96-well plate (10^4 cells/100 μL) in complete media and incubated overnight at 37 °C with 5% CO2. Different concentrations (0−300 μM) of the peptide solution (10 μL) were added to wells to make the final concentrations of the peptide (0−30 μM). The cells were incubated again (37 °C, 5% CO2) for 24 h, then MTS reagent (20 μL) was added to each well followed by incubation for 2 h under the same condition. The absorbance of the resulting solution was evaluated at 490 nm using a microplate reader to detect the live cells. Cells without peptide were considered as a control. DMSO (30% v/v) was used as a positive control. The compound was used in aqueous solution. All the tests were performed in triplicate.
"MIC (MRSA (LAC Clone); Staphylococcus aureus, MRSA, microbroth dilution, incubated overnight at 37 °C, growth not visible to eyes, performed in triplicate, read-out: MIC) [µg/mL]","MIC (E. coli (ATCC 25922); Escherichia coli, ATCC25922, microbroth dilution, incubated overnight at 37 °C, growth not visible to eyes, performed in triplicate, read-out: MIC) [µg/mL]","MIC ([1]; Klebsiella pneumoniae, BAA1705, microbroth dilution, incubated overnight at 37 °C, growth not visible to eyes, performed in triplicate, read-out: MIC) [µg/mL]","MIC ([2]; Pseudomonas aeruginosa, ATCC27883, microbroth dilution, incubated overnight at 37 °C, growth not visible to eyes, performed in triplicate, read-out: MIC) [µg/mL]",SMILES,"MIC (range over MRSA, K. pneumoniae, P. aeruginosa, E. coli) [3] [µg/mL]",MIC (MRSA (LAC Clone); LAC Clone) [µg/mL],MIC (E. coli (ATCC 25922); ATCC 25922) [µg/mL],MIC ([1]; ATCC BAA 1705) [µg/mL],MIC ([2]; ATCC 27883) [µg/mL],cell viability (MDA-MB-231 cells; 25 µM),cell viability (MDA-MB-231 cells; 30 µM) [%]
4,8,32,1,C[C@@H](O)[C@H]1C(=O)N2C(C(=O)O)=C(S[C@@H]3CN[C@H](C(=O)N(C)C)C3)[C@H](C)[C@H]12 [Meropenem],,,,,,,
,,,,"N=C(N)NCCC[C@@H]1NC(=O)[C@H](Cc2c[nH]c3ccccc23)NC(=O)[C@H](CCCNC(=N)N)NC(=O)[C@H](Cc2c[nH]c3ccccc23)NC(=O)[C@H](CCCCNC(=O)CCC(=O)NCCCC[C@@H]2NC(=O)[C@H](CCCNC(=N)N)NC(=O)[C@H](Cc3c[nH]c4ccccc34)NC(=O)[C@H](CCCNC(=N)N)NC(=O)[C@H](Cc3c[nH]c4ccccc34)NC(=O)[C@H](CCCNC(=N)N)NC(=O)[C@H](Cc3c[nH]c4ccccc34)NC(=O)[C@H](CCCNC(=N)N)NC(=O)[C@H](Cc3c[nH]c4ccccc34)NC2=O)NC(=O)[C@H](CCCNC(=N)N)NC(=O)[C@H](Cc2c[nH]c3ccccc23)NC(=O)[C@H](CCCNC(=N)N)NC(=O)[C@H](Cc2c[nH]c3ccccc23)NC(=O)[C@H](CCCCNC(=O)CCC(=O)NCCCC[C@@H]2NC(=O)[C@H](CCCNC(=N)N)NC(=O)[C@H](Cc3c[nH]c4ccccc34)NC(=O)[C@H](CCCNC(=N)N)NC(=O)[C@H](Cc3c[nH]c4ccccc34)NC(=O)[C@H](CCCNC(=N)N)NC(=O)[C@H](Cc3c[nH]c4ccccc34)NC(=O)[C@H](CCCNC(=N)N)NC(=O)[C@H](Cc3c[nH]c4ccccc34)NC2=O)NC1=O [Tricyclic peptide 20] (I: cyclo(KWRWRKWRWR) / II: cyclo(KWRWRWRWR) / III: cyclo(KWRWRWRWR); linker I:1-III:1, I:6-II:1 via Suc)",64 to 128,64,64,128,128,more than 97%,92
,,,,N=C(N)NCCC[C@@H]1NC(=O)[C@H](CCCNC(=N)N)NC(=O)[C@H](CCCNC(=N)N)NC(=O)[C@H](Cc2c[nH]c3ccccc23)NC(=O)[C@H](Cc2c[nH]c3ccccc23)NC(=O)[C@H](Cc2c[nH]c3ccccc23)NC(=O)[C@H](Cc2c[nH]c3ccccc23)NC(=O)[C@H](CCCNC(=N)N)NC1=O [c[R4W4]] (cyclo(RRRRWWWW)),,4,16,32,64,,
